Assay results taken from ChEMBL document CHEMBL1153625, “Structure-based virtual screening approach to identify novel classes of Cdc25B phosphatase inhibitors” (Bioorg Med Chem Lett, 2009).
pIC50: −log10 of the molar value.

Legend:
[1] = target: T1, M-phase inducer phosphatase 1 (Homo sapiens, UniProt P30304); experiment: Inhibition of Cdc25A
T1 sequence (P30304 whole entry): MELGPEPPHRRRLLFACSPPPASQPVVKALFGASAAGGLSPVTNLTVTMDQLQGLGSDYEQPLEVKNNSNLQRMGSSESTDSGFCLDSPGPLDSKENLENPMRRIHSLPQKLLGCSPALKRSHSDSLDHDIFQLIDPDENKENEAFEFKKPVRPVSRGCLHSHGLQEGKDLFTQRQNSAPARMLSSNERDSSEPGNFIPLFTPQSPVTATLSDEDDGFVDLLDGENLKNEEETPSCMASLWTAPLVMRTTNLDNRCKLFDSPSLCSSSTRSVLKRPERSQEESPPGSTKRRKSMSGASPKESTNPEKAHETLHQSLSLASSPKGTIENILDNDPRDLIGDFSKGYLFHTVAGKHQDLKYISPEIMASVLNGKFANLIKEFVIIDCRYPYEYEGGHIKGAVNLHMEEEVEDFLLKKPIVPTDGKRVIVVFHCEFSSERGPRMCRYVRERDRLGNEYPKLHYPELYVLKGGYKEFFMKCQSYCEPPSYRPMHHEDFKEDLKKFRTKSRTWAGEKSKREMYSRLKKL

[2] = target: T2, M-phase inducer phosphatase 2 (Homo sapiens, UniProt P30305); experiment: Inhibition of GST-fused Cdc25B
T2 sequence (P30305 whole entry): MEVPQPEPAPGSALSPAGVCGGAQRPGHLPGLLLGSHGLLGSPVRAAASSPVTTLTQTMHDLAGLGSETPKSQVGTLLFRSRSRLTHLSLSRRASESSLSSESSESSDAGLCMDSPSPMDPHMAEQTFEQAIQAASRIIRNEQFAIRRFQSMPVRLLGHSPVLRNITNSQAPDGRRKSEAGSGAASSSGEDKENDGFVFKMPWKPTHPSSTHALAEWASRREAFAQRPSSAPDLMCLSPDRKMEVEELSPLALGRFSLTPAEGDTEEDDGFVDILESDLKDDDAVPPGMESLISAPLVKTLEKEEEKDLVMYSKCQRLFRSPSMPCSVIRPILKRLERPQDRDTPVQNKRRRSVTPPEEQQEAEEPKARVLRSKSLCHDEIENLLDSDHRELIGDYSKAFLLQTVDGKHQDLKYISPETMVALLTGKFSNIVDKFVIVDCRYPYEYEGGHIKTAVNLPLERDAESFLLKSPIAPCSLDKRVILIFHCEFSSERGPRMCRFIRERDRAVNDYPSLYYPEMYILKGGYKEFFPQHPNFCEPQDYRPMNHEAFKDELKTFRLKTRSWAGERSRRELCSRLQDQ

[3] = target: T3, Tyrosine-protein phosphatase 1 (Saccharomyces cerevisiae S288c, UniProt P25044); experiment: Inhibition of YPTP1
T3 sequence (P25044 whole entry): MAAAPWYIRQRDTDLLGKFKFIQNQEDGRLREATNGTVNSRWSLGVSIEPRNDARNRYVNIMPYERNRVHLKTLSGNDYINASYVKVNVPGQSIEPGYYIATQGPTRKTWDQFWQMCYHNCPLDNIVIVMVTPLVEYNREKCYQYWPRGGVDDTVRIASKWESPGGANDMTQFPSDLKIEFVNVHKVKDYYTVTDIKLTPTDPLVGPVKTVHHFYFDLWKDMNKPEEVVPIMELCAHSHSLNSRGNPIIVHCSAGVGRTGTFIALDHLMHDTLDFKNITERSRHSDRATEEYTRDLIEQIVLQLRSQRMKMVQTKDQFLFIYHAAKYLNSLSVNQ

[4] = Inhibition of YOP; parameters: species or system Yersinia
[5] = target: T4, Tyrosine-protein phosphatase non-receptor type 1 (Homo sapiens, UniProt P18031); experiment: Inhibition of PTP1B
T4 sequence (P18031 whole entry): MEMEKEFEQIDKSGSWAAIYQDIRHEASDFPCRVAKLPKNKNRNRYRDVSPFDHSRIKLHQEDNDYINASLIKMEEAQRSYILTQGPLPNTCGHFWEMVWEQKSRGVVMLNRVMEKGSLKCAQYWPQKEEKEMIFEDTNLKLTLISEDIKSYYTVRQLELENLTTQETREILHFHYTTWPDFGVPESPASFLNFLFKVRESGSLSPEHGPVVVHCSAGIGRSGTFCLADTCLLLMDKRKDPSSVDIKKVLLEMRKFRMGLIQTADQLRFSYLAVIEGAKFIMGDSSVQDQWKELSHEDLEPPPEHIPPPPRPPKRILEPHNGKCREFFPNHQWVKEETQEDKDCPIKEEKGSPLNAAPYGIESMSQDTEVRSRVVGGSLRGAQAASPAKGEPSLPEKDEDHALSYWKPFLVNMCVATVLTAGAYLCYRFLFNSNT

SMILES	pIC50 [1]	pIC50 [2]	pIC50 [3]	pIC50 [4]	pIC50 [5]
O=C(O)c1ccc2c(c1)C(=O)/C(=C/c1ccccc1)C2=O	4.88	5.07			
O=S(=O)(Nc1cc2nc3ccccc3nc2n1Cc1ccccc1)c1ccccc1	5.68	6.68	< 4.00	< 4.00	< 4.00
O=C1C(Cl)=C(NC(Cc2ccccc2)C(=O)O)C(=O)c2ccccc21 (configuration not stated)	5.46	5.42			
O=C1C(Cl)=C(NCCc2ccc(F)cc2)C(=O)c2ccccc21	5.41	5.02			
Nc1cccc(Nc2nc3ccccc3nc2NS(=O)(=O)c2ccc(Cl)cc2)c1	5.64	4.95			
N#Cc1c(NS(=O)(=O)c2ccccc2)n(Cc2ccccc2)c2nc3ccccc3nc12	5.54	6.70	< 4.00	< 4.00	< 4.00
O=C(Nc1ccc(Cl)c(Cl)c1)Nc1ncc2c(n1)CC(c1ccco1)CC2=O (configuration not stated)	4.75	4.86			
N#Cc1c(N)n(Cc2ccc3c(c2)OCO3)c2nc3ccccc3nc12	5.26	5.04			
